The record followed here is ChEMBL document CHEMBL1138441, “3-Benzyl-1,3-oxazolidin-2-ones as mGluR2 positive allosteric modulators: Hit-to lead and lead optimization” (Bioorg Med Chem Lett, 2009).

The nature of data set [1]: Ratio of drug level in mouse brain to plasma at 10 mg/kg, sc after 2 hrs. It is filed as ADME, organism-based. On the set-up: dose 10 mg/kg, route subcutaneous.
Data set [2] is described as follows: Drug level in mouse brain at 10 mg/kg, sc after 2 hrs. It is filed as ADME, organism-based. On the set-up: dose 10 mg/kg, route subcutaneous. To be noted: read-out: Drug uptake.
A short description of data set [3]: Plasma concentration in mouse at 10 mg/kg, sc after 2 hrs. Details: dose 10 mg/kg, route subcutaneous. It is filed as ADME, organism-based. To be noted: read-out: Drug uptake.
Data set [4] in a line: Ratio of drug level in mouse brain to plasma at > 32 mg/kg, sc after 30 mins. It is filed as ADME, organism-based. On the set-up: dose 32 mg/kg, route subcutaneous.
Data set [5] in a line: Permeability from apical to basolateral side of MDCK cells at 2 uM by MS based assay. To be noted: dog. It is filed as ADME, cell-based, Canis lupus familiaris.
Data set [6] in a line: Oral bioavailability in rat at 3 mg/kg. It is filed as ADME, organism-based. The following applies: in vivo.
A short description of data set [7]: Drug level in mouse brain at > 32 mg/kg, sc after 30 mins. It is filed as ADME, organism-based. On the set-up: dose 32 mg/kg, route subcutaneous. The following applies: read-out: Drug uptake.
Data set [8] in a line: Volume of distribution at steady state in rat at 1 mg/kg, iv. The following applies: in vivo, read-out: Vdss. It is filed as ADME, organism-based. Details: dose 1 mg/kg, route intravenous.
A short description of data set [9]: Plasma concentration in mouse at > 32 mg/kg, sc after 30 mins. It is filed as ADME, organism-based. On the set-up: dose 32 mg/kg, route subcutaneous. The following applies: read-out: Drug uptake.
Data set [10] is described as follows: Oral bioavailability in rat at 10 mg/kg. It is filed as ADME, organism-based. To be noted: in vivo.

Molecules are shown by their SMILES.

For `C[C@@H]1CN(Cc2ccc(-c3ccc(F)cc3F)cc2)C(=O)O1`, the Kp at 2 h in [1] came to 2.1. Further, the concentration at 2 h was 2230 ng/g in data set [2] and 1070 ng/mL in [3].

With `CC(Oc1ccc(CN2C[C@@H](C)OC2=O)cc1)C1CCCCC1` (single isomer, unassigned), the concentration ratio (Kp) at 0.5 h in data set [4] came out at 3. In data set [5], this compound yielded a Papp A→B at 2 µM of 12.3 ×10⁻⁶ cm/s.

The compound `C[C@@H]1CN(Cc2ccc(-c3ccc(OC(F)(F)F)cc3F)nc2)C(=O)O1` gave a bioavailability in data set [6] of 100%. The concentration at 0.5 h in [7] came to 10100 ng/g; in data set [9] it was 3550 ng/mL. Besides, the Vd in [8] came to 4.7 L/kg.

Turning to `C[C@@H]1CN(Cc2ccc(-c3ccc(F)c(Cl)c3)cc2)C(=O)O1`, the bioavailability in data set [10] is 64%. For the same compound, the Kp at 2 h in [1] came out at 3.7. Also, the concentration at 2 h in data set [2] came to 2750 ng/g; in data set [3], 750 ng/mL. Further, in [8], the Vd turned out to be 3.2 L/kg.
